Assay results published in patent publication US20200330429A1, “METHOD OF TREATING TRUNCAL ACNE WITH TRIFAROTENE” (priority 2019, published 2020).

Key:
moderate facial acne [1] = assay: PERFECT 1, 12-week vehicle-controlled study, facial acne efficacy; format: in vivo, human
Description: (§1) A multi-center (United States, Canada, Europe and Russia), 12-week, double-blinded, and vehicle controlled group study with a 1:1 randomization pattern (once daily trifarotene 50 μg/g or vehicle cream) was conducted in subjects with moderate facial and truncal acne. Enrolled patients or caregivers received instruction about how to apply a thin layer of study drug daily at bedtime on the face and self-reachable trunk. Patients were also instructed to cleanse the skin and not to apply moisturizer one hour before or one hour after study drug application. Use of moisturizer was encouraged from the initiation of treatment. Investigators could reduce the frequency of application to alternate days for a maximum of 2 weeks in the first 4 weeks following the Baseline visit when needed to manage irritation. The patients were selected based on the following criteria.
Inclusion Criteria: • 1. Male or female patients 9 years or older. • 2. Moderate facial acne, defined as: Investigator Global Assessment (IGA) score of 3 on the face. Minimum of 20 inflammatory lesions and 25 non-inflammatory lesions on the face at Screening and Baseline • 3. Moderate truncal acne with Physician Global Assessment (PGA) score of 3 at Screening and Baseline. Minimum of 20 inflammatory lesions and 20 non-inflammatory lesions but no more than 100 non-inflammatory lesion counts on the trunk (shoulders, upper back and upper anterior chest) reachable to self-application of study drug by the subject at Screening and Baseline (optional criterion for subject between 9 and 11 years of age). • 4. Accessible treated areas of the trunk were defined for the study. The trunk anatomical region assessment was pre-defined by a size-fitted T-shirt (patent # US00D7580485, Jun. 7, 2016). This ensured consistency for study assessment areas throughout the study duration. • 5. […]
(§2) Severity definitions for IGA and PGA scales [5-point scales ranging from 0 (clear) to 4 (severe)] were the same. Lesion counts were performed and IGA and PGA were assessed at Screening, Baseline, and Weeks 1, 2, 4, 8, and 12/ET visits. […]

moderate truncal acne [2] = assay: PERFECT 1, 12-week vehicle-controlled study, truncal acne efficacy; format: in vivo, human
Description: as §1
(§3) Inclusion Criteria: • 1. Male or female patients 9 years or older. • 2. Moderate facial acne, defined as: Investigator Global Assessment (IGA) score of 3 on the face. Minimum of 20 inflammatory lesions and 25 non-inflammatory lesions on the face at Screening and Baseline • 3. […]
as §2

moderate facial acne [3] = assay: PERFECT 2, 12-week vehicle-controlled study, facial acne efficacy; format: in vivo, human
Description: as §1
Inclusion Criteria: • 1. Male or female patients 9 years or older. • 2. Moderate facial acne, defined as: Investigator Global Assessment (IGA) score of 3 on the face. Minimum of 20 inflammatory lesions and 25 non-inflammatory lesions on the face at Screening and Baseline • 3. Moderate truncal acne with Physician Global Assessment (PGA) score of 3 at Screening and Baseline. Minimum of 20 inflammatory lesions and 20 non-inflammatory lesions but no more than 100 non-inflammatory lesion counts on the trunk (shoulders, upper back and upper anterior chest) reachable to self-application of study drug by the subject at Screening and Baseline (optional criterion for subject between 9 and 11 years of age). • 4. Accessible treated areas of the trunk were defined for the study. The trunk anatomical region assessment was pre-defined by a size-fitted T-shirt (patent # US00D7580485, Jun. 7, 2016). This ensured consistency for study assessment areas throughout the study duration. • 5. For subjects aged 9 to 11 years, inclusion criteria regarding truncal acne were optional due to relative rarity of trunk involvement (compared with face) in this age group.
Primary Efficacy Endpoints • Success rate, defined as the percentage of subjects who achieved an IGA score on the face of 1 (Almost Clear) or 0 (Clear) and at least a 2-grade improvement from Baseline to Week 12. • Absolute and percent change (supportive efficacy endpoint) in facial inflammatory lesion count from Baseline to Week 12. • Absolute and percent change (supportive efficacy endpoint) in facial non-inflammatory lesion count from Baseline to Week 12.
Severity definitions for IGA and PGA scales [5-point scales ranging from 0 (clear) to 4 (severe)] were the same. Lesion counts were performed and IGA and PGA were assessed at Screening, Baseline, and Weeks 1, 2, 4, 8, and 12/ET visits.
Trifarotene or the vehicle were applied once daily in the evening for 12 weeks. […]

moderate truncal acne [4] = assay: PERFECT 2, 12-week vehicle-controlled study, truncal acne efficacy; format: in vivo, human
Description: as §1, §3, §2

[5] = tested on: subjects with moderate facial and truncal acne; assay: PERFECT 1 safety: local tolerability and adverse events; format: in vivo, human
Description: as §1
(§4) Safety was assessed through adverse events, vital signs and routine laboratory testing. Safety assessments included treatment emergent adverse events (TEAE5), standard laboratory safety tests at screening and last study visit including hematology, blood chemistry, and urinalysis (Barc Central Laboratory, US and Belgium), physical examination, and monitoring of vital signs. Local tolerability signs/symptoms expected with a topical retinoid were collected separately from adverse events to better characterize the tolerability profile of trifarotene cream. These included erythema, scaling, dryness, and stinging/burning scored on a 4-point scale, none=0, mild=1, moderate=2, severe=3. Subjects were specifically queried at each study visit, including Baseline, for the presence of local signs or symptoms. Signs and/or symptoms of local cutaneous irritation assessed with the tolerability scale were considered to be Adverse Events if they were severe enough to lead to permanent discontinuation of study product treatment or required use of concomitant treatment including over-the-counter products (other than moisturizers). Subjects were assessed at screening/baseline and Weeks 1, 2, 4, 8 and 12.
(§5) Trifarotene or the vehicle were applied once daily in the evening for 12 weeks. The liberal use of a non-comedogenic and hypoallergenic moisturizer and non-comedogenic sunscreen was allowed. Trifarotene or the vehicle were not to be applied to cuts, abrasions, eczematous, or sunburned skin.

[6] = tested on: subjects with moderate facial and truncal acne; assay: PERFECT 2 safety: local tolerability and adverse events; format: in vivo, human
Description: as §1, §4, §5

[7] = tested on: subjects with moderate facial and truncal acne; assay: PERFECT 1 and PERFECT 2, statements for both studies together; format: in vivo, human
Description: Enrolled patients or caregivers received instruction about how to apply a thin layer of study drug daily at bedtime on the face and self-reachable trunk. Patients were also instructed to cleanse the skin and not to apply moisturizer one hour before or one hour after study drug application. Use of moisturizer was encouraged from the initiation of treatment. […] The patients were selected based on the following criteria. […] Lesion counts were performed and IGA and PGA were assessed at Screening, Baseline, and Weeks 1, 2, 4, 8, and 12/ET visits. Safety was assessed through adverse events, vital signs and routine laboratory testing. Safety assessments included treatment emergent adverse events (TEAE5), standard laboratory safety tests at screening and last study visit including hematology, blood chemistry, and urinalysis (Barc Central Laboratory, US and Belgium), physical examination, and monitoring of vital signs. Local tolerability signs/symptoms expected with a topical retinoid were collected separately from adverse events to better characterize the tolerability profile of trifarotene cream. […] Subjects were specifically queried at each study visit, including Baseline, for the presence of local signs or symptoms. Signs and/or symptoms of local cutaneous irritation assessed with the tolerability scale were considered to be Adverse Events if they were severe enough to lead to permanent discontinuation of study product treatment or required use of concomitant treatment including over-the-counter products (other than moisturizers). […] Trifarotene or the vehicle were applied once daily in the evening for 12 weeks. The liberal use of a non-comedogenic and hypoallergenic moisturizer and non-comedogenic sunscreen was allowed. Trifarotene or the vehicle were not to be applied to cuts, abrasions, eczematous, or sunburned skin.

moderate truncal acne [8] = assay: SATisFy 52-week study, truncal acne efficacy; format: in vivo, human
Description: (§6) A multi-center, 52-week, […] group study (SATisFy) with once daily trifarotene 50 μg/g was conducted in subjects with moderate facial and truncal acne. The screening/baseline weeks were 1, 2, 4, 8, 12, 20, 26, 38 & week 52. Inclusion/exclusion criteria and assessment are as described in Example 1, unless mentioned otherwise. Additional assessments may include subject's facial acne assessment, quality of life (DLQI and CDLQI) and standard facial and trunk photography.
(§7) Efficacy • Success rate: IGA/PGA score of 2 grade in improvement and Clear (0) or Almost Clear (1) • Grade change from baseline of IGA & PGA • Subject's assessment of facial acne improvement.

moderate facial acne [9] = assay: SATisFy 52-week study, facial acne efficacy and quality of life; format: in vivo, human
Description: as §6, §7

keratinocytes = settings: cited from earlier work
[10] = hepatic microsomes; cited from earlier work
[11] = week 12, trunk population, SATisFy
[12] = week 52, trunk population, SATisFy

## CC(C)(C)c1cc(-c2cc(-c3ccc(C(=O)O)cc3)ccc2OCCO)ccc1N1CCCC1 [trifarotene, 3″-tert-Butyl-4′-(2-hydroxy-ethoxy)-4″-pyrrolidin-1-yl-[1,1′,3′,1″]terphenyl-4-carboxylic acid]
Moderate facial acne [1]; PERFECT 1
  statistically significant superior facial IGA success rates vs vehicle, at week: 4 week
Moderate facial acne [1]; face, Week 12, PERFECT 1
  Inflammatory Lesions Mean Absolute Change from baseline: −19.0
Moderate facial acne [1]; face, Week 12, PERFECT 1, 50 μg/g once daily
  IGA Success (%): 29.4%
Moderate truncal acne [2]; PERFECT 1
  statistically significantly superior reductions in inflammatory and non-inflammatory lesions on the trunk, starting by week: 4 week
Moderate truncal acne [2]; trunk, Week 12, PERFECT 1
  PGA Success (%): 35.7%
Moderate facial acne [3]; PERFECT 2
  statistically significant superior facial IGA success rates vs vehicle, at week: 8 week
Moderate facial acne [3]; face, Week 12, PERFECT 2
  Inflammatory Lesions Mean Absolute Change from baseline: −24.2
  Non-inflammatory Lesions Mean Absolute Change from baseline: −30.1
Moderate facial acne [3]; face, Week 12, PERFECT 2, 50 μg/g once daily
  IGA Success (%): 42.3%
Moderate truncal acne [4]; PERFECT 2
  statistically significantly superior reductions in inflammatory and non-inflammatory lesions on the trunk, starting by week: 2 week
Moderate truncal acne [4]; trunk, Week 12, PERFECT 2
  PGA Success (%): 42.6%
[5]
  Severe AEs considered related to trifarotene therapy, subjects: 6 subjects
  Severe related AE: dermatitis allergic, number: 1
  Severe related AE: skin irritation, number: 4
  Severe related AE: sunburn, number: 1
[6]
  Severe AEs considered related to trifarotene therapy, subjects: 3 subjects
  Severe related AE: application site erosion, number: 1
  Severe related AE: application site irritation, number: 1
  Severe related AE: application site pain, number: 1
[7]; PERFECT 1 and PERFECT 2
  changes in vital signs, physical exams and laboratory parameters: no significant clinically relevant changes
  serious AEs: no AE was serious
[7]; both studies
  success rates on the trunk statistically significant vs vehicle, starting at week: 8 week
[7]; face
  facial lesion count reductions, statistical differences vs vehicle apparent as early as week: 1-2 week
Moderate truncal acne [8]; Wk12 (87/396)
  overall success rate in same subject for truncal acne: 22.0%
Moderate truncal acne [8]; Wk20 (138/375)
  overall success rate in same subject for truncal acne: 36.8%
Moderate truncal acne [8]; Wk26 (157/363)
  overall success rate in same subject for truncal acne: 43.3%
Moderate truncal acne [8]; Wk38 (177/355)
  overall success rate in same subject for truncal acne: 49.9%
Moderate truncal acne [8]; Wk52 (199/344)
  overall success rate in same subject for truncal acne: 57.9%
Moderate truncal acne [8]; [11]
  PGA success rates: 38.6%
  trunk IGA success rates: 26.6%
Moderate truncal acne [8]; [12]
  success rates (IGA): 65.1%
  success rates (PGA): 66.9%
Moderate facial acne [9]; Wk12 (166/401)
  success rates, facial acne: 41.4%
Moderate facial acne [9]; Wk26 (201/367)
  success rates, facial acne: 54.8%
Moderate facial acne [9]; Wk52 (233/350)
  success rates, facial acne: 66.6%
Moderate facial acne [9]; week 52 (92/171), 22.6% at Baseline
  subjects who reported that acne had no effect on quality of life: 53.8%
keratinocytes
  metabolic stability: metabolically stable
[10]
  metabolism: rapidly metabolized
